Test results taken from patent US11993610B2, “BCL-2 inhibitors” (Newave Pharmaceutical Inc., priority 2017, dated 2024).
Like-named read-outs stand apart in the source and are kept apart here. Blank lines part the entries; values can stand above or below the compound they belong to.

Legend:
RS4; 11 = assay: In vitro anti-proliferation assay (ATPlite) in BCL-2-dependent ALL cell line RS4; 11; format: cell-based
Procedure: Cell antiproliferation was assayed by PerkinElmer ATPlite™ Luminescence Assay System. Briefly, the various test cancer cell lines were plated at a density of about 1×10^4 cells per well in Costar 96-well plates, and were incubated with different concentrations of compounds for about 72 hours in medium supplemented with 5% FBS or 10% normal human serum (NHS). One lyophilized substrate solution vial was then reconstituted by adding 5 mL of substrate buffer solution, and was agitated gently until the solution is homogeneous. About 50 μL of mammalian cell lysis solution was added to 100 μL of cell suspension per well of a microplate, and the plate was shaken for about five minutes in an orbital shaker at ˜700 rpm. This procedure was used to lyse the cells and to stabilize the ATP. Next, 50 μL substrate solution was added to the wells and microplate was shaken for five minutes in an orbital shaker at ˜700 rpm. Finally, the luminescence was measured by a PerkinElmer TopCount® Microplate Scintillation Counter. Such assays, carried out with a range of doses of test compounds, allowed the determination of the cellular anti-antiproliferative IC50 of the compounds of the present invention.

[1] = tested on: BCL-2-dependent acute lymphoblastic leukemia RS4; 11 xenograft model; assay: In vivo RS4; 11 xenograft study; parameters: species or system CB.17 SCID mice; details: for BW Nadir / Tumor volume: po
Description: The CB.17 SCID mice were obtained at age 6-8 weeks from vendors and acclimated for a minimum 7-day period. The cancer cells were then implanted into the […] mice. Depending on the specific tumor type, tumors were typically detectable about two weeks following implantation. When tumor sizes reached ˜100-200 mm^3, the animals with appreciable tumor size and shape were randomly assigned into groups of 8 mice each, including one vehicle control group and treatment groups. Dosing varies depending on the purpose and length of each study, which typically proceeded for about 3-4 weeks. Tumor sizes and body weight were typically measured three times per week. In addition to the determination of tumor size changes, the last tumor measurement was used to generate the tumor size change ratio (T/C value), a standard metric developed by the National Cancer Institute for xenograft tumor evaluation. In most cases, % T/C values were calculated using the following formula: % T/C=100×ΔT/ΔC if ΔT>0. When tumor regression occurred (ΔT<0), however, the following formula was used: % T/T0=100×ΔT/T0.

circulating platelets = details: clinical trial; cited from earlier work
[2] = tested on: xenograft models of small-cell lung cancer and acute lymphoblastic leukemia; details: oral administration, alone; cited from earlier work
H345 xenograft model = details: 100 mg/kg/day; cited from earlier work
[3] = cited from earlier work
Mice PK study = format: in vivo; details: po, 10 mg/kg, CD-1 mouse; for AUC / half-life / bioavailability: plasma; for half-life: read-out: t½ (converted); for bioavailability: read-out: Bioavailabilty
Procedure: The pharmacokinetics of compounds were evaluated in CD-1 mouse via Intravenous and Oral Administration. The IV dose was administered as a slow bolus in the Jugular vein, and oral doses were administered by gavage. The formulation for IV dosing is 5% DMSO in 20% HPBCD in water, and the PO formulation is 2.5% DMSO, 10% EtOH, 20% Cremphor EL, 67.5% D5W. The PK time point for the IV arm was 5, 15, 30 min, 1, 2, 4, 6, 8, 12, 24 hours post dose, and for PO arm was 15, 30 min, 1, 2, 4, 6, 8, 12, 24 hours post dose. Approximately 0.03 mL blood was collected at each time point. Blood of each sample was transferred into plastic micro centrifuge tubes containing EDTA-K2 and plasma was collected within 15 min by centrifugation at 4000 g for 5 minutes in a 4′C centrifuge. Plasma samples were stored in polypropylene tubes. The samples were stored in a freezer at −75±15° C. prior to analysis. Concentrations of compounds in the plasma samples were analyzed using a LC-MS/MS method. WinNonlin (Phoenix™, version 6.1) or other similar software was used for pharmacokinetic calculations. The following pharmacokinetic parameters were calculated, whenever possible from the plasma concentration versus time data: IV administration: C0, CL, Vd, T1/2, AUCinf, AUClast, MRT, Number of Points for Regression; PO administration: Cmax, Tmax, T1/2, AUCinf, AUClast, F %, Number of Points for Regression. The pharmacokinetic data was described using descriptive statistics such as mean, standard deviation. Additional pharmacokinetic or statistical analysis was performed at the discretion of the contributing scientist, and was documented in the data summary.

[4] = Homo sapiens, RS4-11, 72 h, read-out: IC50, RS4, 11 5% FBS, about 72 hours, first study
[5] = Homo sapiens, RS4-11, 72 h, read-out: IC50, RS4, 11 5% FBS, about 72 hours, another study

- IC50 (RS4; 11; [4]): 5.5 nM
- BW Nadir ([1]; 50 mg/kg, qd × 7): −3.60%
Compound: CC1(C)CCC(CN2CCN(c3ccc(C(=O)NS(=O)(=O)c4ccc(NCC5CCOCC5)c([N+](=O)[O-])c4)c(Oc4cnc5[nH]ccc5c4)c3)CC2)=C(c2ccc(Cl)cc2)C1 [ABT-199, reference compound]
- Tumor volume ([1]; 50 mg/kg, qd × 7): 0 mm^3
- Tumor volume ([1]; 50 mg/kg, qd × 21): 17.4 mm^3

Compound: CC1(C)CCC(c2ccc(Cl)cc2)=C(CN2CCN(c3ccc(C(=O)NS(=O)(=O)c4ccc(N[C@H](CCN5CCOCC5)CSc5ccccc5)c(S(=O)(=O)C(F)(F)F)c4)cc3)CC2)C1 [ABT-263]
- number of circulating platelets (circulating platelets): rapid, concentration-dependent decrease in the number of circulating platelets
- tumor regressions [2]: complete tumor regressions
- TGI (H345 xenograft model): 80%
- treated tumors indicating at least a 50% reduction in tumor volume (H345 xenograft model): 20%

Compound: CN(C)CC[C@H](CSc1ccccc1)Nc1ccc(S(=O)(=O)NC(=O)c2ccc(N3CCN(Cc4ccccc4-c4ccc(Cl)cc4)CC3)cc2)cc1[N+](=O)[O-] [ABT-737]
- aqueous solubility [3]: low

Compound: CC1(C)CCC(CN2CCN(c3ccc(C(=O)NS(=O)(=O)c4ccc(NCC5CCOCC5)c([N+](=O)[O-])c4)c(N4CCOc5nc6[nH]ccc6cc54)c3)CC2)=C(c2ccc(Cl)cc2)C1 [Example 2 (NW-4-8), 4-(4-[[2-(4-chlorophenyl)-4,4-dimethylcyclohex-1-en-1-yl]methyl]piperazin-1-yl)-N-([3-nitro-4-[(oxan-4-ylmethyl)amino]benzene]sulfonyl)-2-[13-oxa-2,4,10-triazatricyclo[7.4.0.0^[3,7]]trideca-1,3(7),5,8-tetraen-10-yl]benzamide]
- IC50 (RS4; 11; read-out: IC50, RS4, 11 5% FBS, about 72 hours, first study): 4.8 nM
- AUC(h * ng/mL) (Mice PK study): 10,365 h * ng/mL
- Bioavailabilty (Mice PK study): 68%
- t½ (Mice PK study): 2.7 h

- IC50 (RS4; 11; [5]): 1.4 nM
- IC50 (RS4; 11; [4]): 2.6 nM
- BW Nadir ([1]; 25 mg/kg, qd × 7): −3.60%
- BW Nadir ([1]; 50 mg/kg, qd × 7): −2.90%
- BW Nadir ([1]; 100 mg/kg, qd × 7): −2.10%
Compound: CC1(C)CCC(CN2CCN(c3ccc(C(=O)NS(=O)(=O)c4ccc(NCC5(F)CCOCC5)c([N+](=O)[O-])c4)c(N4CCOc5nc6[nH]ccc6cc54)c3)CC2)=C(c2ccc(Cl)cc2)C1 [Example 3, 4-(4-((4′-chloro-5,5-dimethyl-3,4,5,6-tetrahydro-[1,1′-biphenyl]-2-yl)methyl)piperazin-1-yl)-2-(2,3-dihydropyrrolo[3′,2′:5,6]pyrido[2,3-b][1,4]oxazin-1(6H)-yl)-N-((4-(((4-fluorotetrahydro-2H-pyran-4-yl)methyl)amino)-3-nitrophenyl)sulfonyl)benzamide]
- Tumor volume ([1]; 25 mg/kg, qd × 7): 368 mm^3
- Tumor volume ([1]; 50 mg/kg, qd × 7): 26 mm^3
- tumor regression ([1]; 100 mg/kg, day 18): complete regression of the tumor
- Tumor volume ([1]; 100 mg/kg, qd × 7): 0 mm^3
- effect on tumor growth ([1]; 7 doses (qd × 7), 25-100 mg/kg po): dose-dependent reduction of tumor growth

- IC50 (RS4; 11; [5]): 1.3 nM
- AUC (Mice PK study): 16100 ng·h/mL
- half-life (Mice PK study): 3.2 h
Compound: C[C@@H]1CN(c2cc(N3CCN(CC4=C(c5ccc(Cl)cc5)CC(C)(C)CC4)CC3)ccc2C(=O)NS(=O)(=O)c2ccc(NCC3(F)CCOCC3)c([N+](=O)[O-])c2)c2cc3cc[nH]c3nc2O1 [Example 6 (R), (R)-4-(4-((4′-chloro-5,5-dimethyl-3,4,5,6-tetrahydro-[1,1′-biphenyl]-2-yl)methyl)piperazin-1-yl)-N-((4-(((4-fluorotetrahydro-2H-pyran-4-yl)methyl)amino)-3-nitrophenyl)sulfonyl)-2-(3-methyl-2,3-dihydropyrrolo[3′,2′:5,6]pyrido[2,3-b][1,4]oxazin-1(6H)-yl)benzamide]

- IC50 (RS4; 11; [5]): 3.2 nM
- AUC (Mice PK study): 12100 ng·h/mL
- bioavailability (Mice PK study): 74%
Compound: C[C@H]1CN(c2cc(N3CCN(CC4=C(c5ccc(Cl)cc5)CC(C)(C)CC4)CC3)ccc2C(=O)NS(=O)(=O)c2ccc(NCC3(F)CCOCC3)c([N+](=O)[O-])c2)c2cc3cc[nH]c3nc2O1 [Example 6 (S), (S)-4-(4-((4′-chloro-5,5-dimethyl-3,4,5,6-tetrahydro-[1,1′-biphenyl]-2-yl)methyl)piperazin-1-yl)-N-((4-(((4-fluorotetrahydro-2H-pyran-4-yl)methyl)amino)-3-nitrophenyl)sulfonyl)-2-(3-methyl-2,3-dihydropyrrolo[3′,2′:5,6]pyrido[2,3-b][1,4]oxazin-1(6H)-yl)benzamide]

- IC50 (RS4; 11; [5]): 5.6 nM
- AUC (Mice PK study): 11000 ng·h/mL
- bioavailability (Mice PK study): 90%
- half-life (Mice PK study): 3.2 h
Compound: CC1(C)CCC(CN2CCN(c3ccc(C(=O)NS(=O)(=O)c4ccc(NCC5(F)CCOCC5)c([N+](=O)[O-])c4)c(N4CC(C)(C)Oc5nc6[nH]ccc6cc54)c3)CC2)=C(c2ccc(Cl)cc2)C1 [Example 7, 4-(4-((4′-chloro-5,5-dimethyl-3,4,5,6-tetrahydro-[1,1′-biphenyl]-2-yl)methyl)piperazin-1-yl)-2-(3,3-dimethyl-2,3-dihydropyrrolo[3′,2′:5,6]pyrido[2,3-b][1,4]oxazin-1(6H)-yl)-N-((4-(((4-fluorotetrahydro-2H-pyran-4-yl)methyl)amino)-3-nitrophenyl)sulfonyl)benzamide]

- AUC (Mice PK study): 19900 ng·h/mL
- half-life (Mice PK study): 4.1 h
Compound: C[C@H]1CN(c2cc(N3CCN(CC4=C(c5ccc(Cl)cc5)CC(C)(C)CC4)CC3)ccc2C(=O)NS(=O)(=O)c2ccc(NCC3CCOCC3)c([N+](=O)[O-])c2)c2cc3cc[nH]c3nc2O1 [Example 9, (S)-4-(4-((4′-chloro-5,5-dimethyl-3,4,5,6-tetrahydro-[1,1′-biphenyl]-2-yl)methyl)piperazin-1-yl)-2-(3-methyl-2,3-dihydropyrrolo[3′,2′:5,6]pyrido[2,3-b][1,4]oxazin-1(6H)-yl)-N-((3-nitro-4-(((tetrahydro-2H-pyran-4-yl)methyl)amino)phenyl)sulfonyl)benzamide]

- AUC (Mice PK study): 35000 ng·h/mL
- bioavailability (Mice PK study): 78%
- half-life (Mice PK study): 4.1 h
Compound: C[C@@H]1CN(c2cc(N3CCN(CC4=C(c5ccc(Cl)cc5)CC(C)(C)CC4)CC3)ccc2C(=O)NS(=O)(=O)c2ccc(NCC3CCOCC3)c([N+](=O)[O-])c2)c2cc3cc[nH]c3nc2O1 [Example 10, (R)-4-(4-((4′-chloro-5,5-dimethyl-3,4,5,6-tetrahydro-[1,1′-biphenyl]-2-yl)methyl)piperazin-1-yl)-2-(3-methyl-2,3-dihydropyrrolo[3′,2′:5,6]pyrido[2,3-b][1,4]oxazin-1(6H)-yl)-N-((3-nitro-4-(((tetrahydro-2H-pyran-4-yl)methyl)amino)phenyl)sulfonyl)benzamide]
